Test results taken from US20220042033A1, “COMPOSITION AND METHOD FOR CONFERRING AND/OR ENHANCING TOLERANCE AGAINST HERBICIDES BY USING VARIANTS OF PPO” (FarmHannong Co., Ltd., priority 2017, published 2022).

Assays:
[1] = target: Auxenochlorella protothecoides ApPPO1 (SEQ ID NO: 1) variant R140A, fused to MBP (Auxenochlorella protothecoides, UniProt A0A087SQM0, R140A); assay: PPO enzyme inhibition assay (IC50), MBP-fused PPO; assay type: biochemical
Description: (§2) Thus, PPO proteins of wild type and variants were expressed as fused to MBP and were used for experiments.
(§3) The following process for purification of PPO protein was performed in a 4° C. cold room. […] The column was washed with 3 column volumes of buffer and the presence of protein in the washing solution was examined. When the protein was no longer detected, the washing procedure was terminated. Then, the MBP-PPO protein was eluted with approximately 2 column volumes of buffer containing 20 mM maltose. The protein concentration of each eluent was determined and the elution was stopped when the protein was no longer detected. Ten microliter of each fraction was investigated for protein quantification and SDS-PAGE analysis. […]
(§4) Hundred and eighty microliters of a reaction mixture containing the purified PPO protein were placed in 96 well plates and 20 μl of purified PPO proteins were added. […] The reaction proceeded at room temperature for 30 min and the fluorescence of protoporphyrin IX was measured using Microplate reader (Sense, Hidex) (excitation: 405 nm; emission: 633 nm). […] To this, 2.7 N HCl was added, and the absorbance at 408 nm was measured. A standard curve was generated using standard protoporphyrin IX, and PPO activity was measured by calibration of protoporphyrin IX using the standard curve of protoporphyrin IX.

[2] = target: Auxenochlorella protothecoides ApPPO1 (SEQ ID NO: 1) variant F209A, fused to MBP (Auxenochlorella protothecoides, UniProt A0A087SQM0, F209A); assay: PPO enzyme inhibition assay (IC50), MBP-fused PPO; assay type: biochemical
Description: as §2, §3, §4

[3] = target: Auxenochlorella protothecoides ApPPO1 (SEQ ID NO: 1) variant V213C, fused to MBP (Auxenochlorella protothecoides, UniProt A0A087SQM0, V213C); assay: biochemical
Description: as §2, §3, §4

[4] = target: Auxenochlorella protothecoides ApPPO1 (SEQ ID NO: 1) variant A215C, fused to MBP (Auxenochlorella protothecoides, UniProt A0A087SQM0, A215C); assay: PPO enzyme inhibition assay (IC50), MBP-fused PPO; assay type: biochemical
Description: as §2, §3, §4

[5] = target: Auxenochlorella protothecoides ApPPO1 (SEQ ID NO: 1) variant F386V, fused to MBP (Auxenochlorella protothecoides, UniProt A0A087SQM0, F386V); assay: PPO enzyme inhibition assay (IC50), MBP-fused PPO; assay type: biochemical
[6] = target: Auxenochlorella protothecoides ApPPO1 (SEQ ID NO: 1) variant L389T, fused to MBP (Auxenochlorella protothecoides, UniProt A0A087SQM0, L389T); assay: PPO enzyme inhibition assay (IC50), MBP-fused PPO; assay type: biochemical
[7] = target: T1, Myxococcus xanthus MxPPO (SEQ ID NO: 3) variant A170C, fused to MBP (Myxococcus xanthus, UniProt P56601, A170C); assay: PPO enzyme inhibition assay (IC50), MBP-fused PPO (Table 15); assay type: biochemical
T1 construct: made in house; host or cells: BL21 CodonPlus(DE3) E. coli
Description: as §2
(§5) In order to express wild type and variant proteins of ApPPO1 and MxPPO, those genes were introduced into pMAL-c2x vector (refer to FIG. 25), respectively.
as §3
(§6) Hundred and eighty microliters of a reaction mixture containing the purified PPO protein were placed in 96 well plates and 20 μl of purified PPO proteins were added. […] The reaction proceeded at room temperature for 30 min and the fluorescence of protoporphyrin IX was measured using Microplate reader (Sense, Hidex) (excitation: 405 nm; emission: 633 nm). […] To this, 2.7 N HCl was added, and the absorbance at 408 nm was measured. […]

[8] = target: T2, Myxococcus xanthus MxPPO (SEQ ID NO: 3) variant A170L, fused to MBP (Myxococcus xanthus, UniProt P56601, A170L); assay: biochemical
T2 construct: made in house; host or cells: BL21 CodonPlus(DE3) E. coli
Description: as §2, §5, §3, §6

[9] = target: T3, Myxococcus xanthus MxPPO (SEQ ID NO: 3) variant I311M, fused to MBP (Myxococcus xanthus, UniProt P56601, I311M); assay: biochemical
T3 construct: made in house; host or cells: BL21 CodonPlus(DE3) E. coli
Description: as §2, §5, §3, §6

[10] = target: T4, Myxococcus xanthus MxPPO (SEQ ID NO: 3) variant L332T, fused to MBP (Myxococcus xanthus, UniProt P56601, L332T); assay: PPO enzyme inhibition assay (IC50), MBP-fused PPO (Table 15); assay type: biochemical
T4 construct: made in house; host or cells: BL21 CodonPlus(DE3) E. coli
Description: as §2, §5, §3, §6

[11] = tested on: E. coli BT3(ΔPPO) transformed with Auxenochlorella protothecoides ApPPO1 wild type, SEQ ID NO: 1; assay: Herbicide tolerance test in PPO-deficient E. coli BT3(ΔPPO), growth on plates; assay type: cell-based; settings: ApPPO1 WT, 37° C., 16 to 20 hours
Description: (§1) Then, the extent of tolerance was evaluated.

[12] = tested on: E. coli BT3(ΔPPO) transformed with Myxococcus xanthus MxPPO wild type, SEQ ID NO: 3; assay: as above; assay type: cell-based; settings: MxPPO WT, light
Description: as §1

[13] = tested on: E. coli BT3(ΔPPO) transformed with Auxenochlorella protothecoides ApPPO1 (SEQ ID NO: 1) variant A215C (AC); assay: as above; assay type: cell-based; settings: Table 7, light, 37° C., 16 to 20 hours, vs wild type at highest herbicide concentration
Description: (§7) The mutated CyPPO gene obtained from the Example 2 was transformed to BT3 (ΔPPO) strain which is deficient of PPO activity and cultured in LB media with PPO-inhibiting herbicide, thereby examining whether growth of transformed BT3 was not inhibited.
(§8) BT3 competent cells were transformed with the pET303-ApPPO1 and pET303-MxPPO plasmids and those with a mutation(s) constructed in Example 2 respectively, and were cultured in LB agar media containing carbenicillin (Gold Biotechnology, Co., Ltd.).
(§9) Single colony of E. coli transformed with each CyPPO gene was cultured in 3 ml of LB broth containing carbenicillin overnight, and then was subcultured until absorbance (OD600) reached 0.5 to 1. Then, it was diluted with LB broth to OD600=0.5. Again, the diluted solution was serially diluted 4 times by a factor of one tenth.
(§10) The LB agar media (LB 25 g/l, Bacto agar 15 g/l) containing carbenicillin (100 μg/ml) and 0 to 4,000 μM of various herbicides dissolved in DMSO was prepared. Next, 10 μl of each diluted solution was dropped on the plate and cultured at 37° C. under light (Tables 7, 9 and 10, FIGS. 2 to 6, 13 to 20) or dark (Tables 8 and 11, FIGS. 7 to 12, 21 to 24) for 16 to 20 hours. Then, the extent of tolerance was evaluated.
(§11) The extent of herbicide tolerance of the ApPPO1 or MxPPO mutated genes was evaluated by comparing that of mutated genes with that of ApPPO1 or MxPPO wild type. The relative tolerance was represented with “+” as a factor of 10 times.
(§12) In Tables 7 to 11, tolerance level was presented as ‘−’ of tolerance of wild type and of variants equivalent to that of wild type, and was done as ‘+’ per each 10 fold resistance until ‘+++++’ as maximal resistance. […] A dilution series (OD600=0.5, 0.05, 0.005, 0.0005, 0.00005) was made and spotted on LB agar plates supplemented with herbicides.

[14] = tested on: E. coli BT3(ΔPPO) transformed with Auxenochlorella protothecoides ApPPO1 (SEQ ID NO: 1) variant A215L (AL); assay: as above; assay type: cell-based; settings: Table 7, light, 37° C., 16 to 20 hours, vs wild type at highest herbicide concentration
Description: as §7, §8, §9, §10, §11, §12

[15] = tested on: E. coli BT3(ΔPPO) transformed with Auxenochlorella protothecoides ApPPO1 (SEQ ID NO: 1) variant V360M (VM); assay: as above; assay type: cell-based; settings: Table 7, light, 37° C., 16 to 20 hours, vs wild type at highest herbicide concentration
Description: as §7, §8, §9, §10, §11, §12

[16] = tested on: E. coli BT3(ΔPPO) transformed with Auxenochlorella protothecoides ApPPO1 (SEQ ID NO: 1) variant Y422I (YI); assay type: cell-based; settings: Table 7, light, 37° C., 16 to 20 hours, vs wild type at highest herbicide concentration
Description: as §7, §8, §9, §10, §11, §12

[17] = tested on: E. coli BT3(ΔPPO) transformed with Auxenochlorella protothecoides ApPPO1 (SEQ ID NO: 1) variant Y422L (YL); assay: Herbicide tolerance test in PPO-deficient E. coli BT3(ΔPPO), growth on plates; assay type: cell-based; settings: Table 7, light, 37° C., 16 to 20 hours, vs wild type at highest herbicide concentration
Description: as §7, §8, §9, §10, §11, §12

[18] = tested on: E. coli BT3(ΔPPO) transformed with Myxococcus xanthus MxPPO (SEQ ID NO: 3) variant A170L; assay: as above; assay type: cell-based; settings: Table 9, light, tiafenacil to 2000 μM, saflufenacil to 200 μM, flumioxazin to 100 μM
Description: as §7, §8, §9, §10
(§13) The extent of herbicide tolerance of the ApPPO1 or MxPPO mutated genes was evaluated by comparing that of mutated genes with that of ApPPO1 or MxPPO wild type. […]

[19] = tested on: E. coli BT3(ΔPPO) transformed with Myxococcus xanthus MxPPO (SEQ ID NO: 3) variant M365L; assay: as above; assay type: cell-based; settings: Table 9, light, tiafenacil to 2000 μM, saflufenacil to 200 μM, flumioxazin to 100 μM
Description: as §7, §8, §9, §10, §13

T1 sequence (P56601 whole entry A170C, the tested form may be a part): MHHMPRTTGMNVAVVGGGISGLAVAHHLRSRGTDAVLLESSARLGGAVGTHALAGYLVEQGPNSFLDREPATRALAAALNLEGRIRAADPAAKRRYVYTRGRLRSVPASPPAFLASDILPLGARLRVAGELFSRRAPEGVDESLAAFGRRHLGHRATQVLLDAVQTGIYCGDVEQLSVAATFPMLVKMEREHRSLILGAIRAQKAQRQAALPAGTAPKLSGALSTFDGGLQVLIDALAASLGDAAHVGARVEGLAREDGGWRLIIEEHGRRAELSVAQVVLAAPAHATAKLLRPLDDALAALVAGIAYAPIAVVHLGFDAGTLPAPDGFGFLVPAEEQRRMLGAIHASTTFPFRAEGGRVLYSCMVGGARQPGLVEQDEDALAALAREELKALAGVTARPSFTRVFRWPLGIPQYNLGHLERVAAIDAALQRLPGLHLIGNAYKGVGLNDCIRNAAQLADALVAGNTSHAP
Sequence of Auxenochlorella protothecoides ApPPO1 (SEQ ID NO: 1) variant F386V, fused to MBP (A0A087SQM0 entry or part of it F386V): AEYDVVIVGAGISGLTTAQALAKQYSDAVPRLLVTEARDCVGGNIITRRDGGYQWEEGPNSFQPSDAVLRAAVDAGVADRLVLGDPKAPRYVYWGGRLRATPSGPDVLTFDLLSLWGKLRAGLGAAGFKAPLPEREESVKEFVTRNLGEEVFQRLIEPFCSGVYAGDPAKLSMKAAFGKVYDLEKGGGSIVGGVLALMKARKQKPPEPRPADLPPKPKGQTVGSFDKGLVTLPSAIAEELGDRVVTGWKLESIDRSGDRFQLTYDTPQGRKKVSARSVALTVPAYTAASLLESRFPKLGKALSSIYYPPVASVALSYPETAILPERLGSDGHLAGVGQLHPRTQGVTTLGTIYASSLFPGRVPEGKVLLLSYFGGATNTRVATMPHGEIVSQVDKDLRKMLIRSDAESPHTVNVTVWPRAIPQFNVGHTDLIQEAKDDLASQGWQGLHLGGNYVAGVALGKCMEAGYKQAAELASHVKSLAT
Sequence of Auxenochlorella protothecoides ApPPO1 (SEQ ID NO: 1) variant V213C, fused to MBP (A0A087SQM0 entry or part of it V213C): as the sequence (A0A087SQM0 entry or part of it F386V) above, with V163C, V336F counted along it
T2 sequence (P56601 whole entry A170L, the tested form may be a part): as the sequence (P56601 whole entry A170C, the tested form may be a part) above, with C170L counted along it
T3 sequence (P56601 whole entry I311M, the tested form may be a part): as the sequence (P56601 whole entry A170C, the tested form may be a part) above, with C170A, I311M counted along it
Sequence of Auxenochlorella protothecoides ApPPO1 (SEQ ID NO: 1) variant R140A, fused to MBP (A0A087SQM0 entry or part of it R140A): as the sequence (A0A087SQM0 entry or part of it F386V) above, with R90A, V336F counted along it
Sequence of Auxenochlorella protothecoides ApPPO1 (SEQ ID NO: 1) variant L389T, fused to MBP (A0A087SQM0 entry or part of it L389T): as the sequence (A0A087SQM0 entry or part of it F386V) above, with V336F, L339T counted along it
T4 sequence (P56601 whole entry L332T, the tested form may be a part): as the sequence (P56601 whole entry A170C, the tested form may be a part) above, with C170A, L332T counted along it
Sequence of Auxenochlorella protothecoides ApPPO1 (SEQ ID NO: 1) variant A215C, fused to MBP (A0A087SQM0 entry or part of it A215C): as the sequence (A0A087SQM0 entry or part of it F386V) above, with A165C, V336F counted along it
Sequence of Auxenochlorella protothecoides ApPPO1 (SEQ ID NO: 1) variant F209A, fused to MBP (A0A087SQM0 entry or part of it F209A): as the sequence (A0A087SQM0 entry or part of it F386V) above, with F159A, V336F counted along it

## COC(=O)CCNC(=O)C(C)Sc1cc(-n2c(=O)cc(C(F)(F)F)n(C)c2=O)c(F)cc1Cl (stereo not drawn) [tiafenacil]
[1]
  IC50: 86 nM
[2]
  IC50: 69 nM
[3]
  IC50: 81 nM
[4]
  IC50: 76 nM
[5]
  IC50: 368 nM
[6]
  IC50: 716 nM
[7]
  IC50: 1680 nM
[8]
  IC50: > 5000 nM
[9]
  IC50: 964 nM
[10]
  IC50: 1010 nM
[11]; Table 7, light, vs wild type at highest herbicide concentration
  relative herbicide tolerance level: −
[11]; Table 8, dark, tiafenacil to 200 μM, flumioxazin to 100 μM, sulfentrazone to 400 μM
  relative herbicide tolerance level: −
[12]; Table 9, tiafenacil to 2000 μM, saflufenacil to 200 μM, flumioxazin to 100 μM
  relative herbicide tolerance level: −
[12]; Table 10, tiafenacil 2000 μM, flumioxazin to 400 μM, sulfentrazone to 1000 μM
  relative herbicide tolerance level: −
[13]
  relative herbicide tolerance level: + (1-9 fold higher tolerance)
[14]
  relative herbicide tolerance level: ++ (10-99 fold higher tolerance)
[15]
  relative herbicide tolerance level: ++ (10-99 fold higher tolerance)
[16]
  relative herbicide tolerance level: ++ (10-99 fold higher tolerance)
[17]
  relative herbicide tolerance level: ++ (10-99 fold higher tolerance)
[18]
  relative herbicide tolerance level: + (1-9 fold higher tolerance)
[19]
  relative herbicide tolerance level: + (1-9 fold higher tolerance)
